Test results from patent US11524009B2, “Combination comprising at least one spliceosome modulator and at least one inhibitor chosen from BCL2 inhibitors, BCL2/BCLxL inhibitors, and BCLxL inhibitors and methods of use” (Eisai R&D Management Co., Ltd., priority 2017, dated 2022).

How the values were obtained:
Type in all cases: cell-based
A549 cells = test: Growth inhibition with or without Dox-induced knockdown of BCLxL
Description: (§1) BCL-xL shRNA 1 ([…]) (Wei G, et al., 2012, Cancer Cell 21(4): 547-562) was cloned into Agel and EcoRl of the Tet inducible lentiviral pLKO-iKD-H1 puro vector (Wiederschain D, et al., 2009, Cell Cycle 8(3): 498-504). MCL1 shRNA 48 ([…]) (Wei G, et al., 2012, Cancer Cell 21(4): 547-56) was cloned into Agel and EcoRl of the Tet inducible lentiviral pLKO-iKD-U6 puro vector. MCL1-L pENTR-D-TOPO was Gateway cloned (LR clonase, Thermo Fisher Scientific) into pINDUCER20 (Meerbrey K L, et al., 2011, Proc Natl Acad Sci USA. 108(9):3665-3670). Lentiviruses were prepared in LentiX-293T cells. […]
(§2) For compound dose response experiments, cells were plated in 96 or 384 well plates at 1,000 cells in 50 μl per well. […] At t=0, untreated cells were lysed with CellTiter-Glo and measured on an Envision plate reader. At t=72 (72 hours after compound addition), cells treated with compound were lysed with CellTiter-Glo and analyzed on Envision. The luminescence value from each treatment sample was normalized to the average value of the respective DMSO control. […]

[1] = system: MCL1 gene splicing in NCIH1568 cells; test: Quantitative RT-PCR detection of MCL1 mRNAs (splicing modulation); conditions: six-hour treatment, qRT-PCR
Protocol: RNA lysates were isolated from cells treated with compounds in 96 well plates and reverse transcribed using TaqMan Gene Expression Cells-to-CT Kit (Thermo Fisher Scientific) according to manufacturer's instruction. Quantitative PCR was performed using TaqMan Gene Expression Master Mix (Thermo Fisher Scientific) with MCL1 transcript probes (Integrated DNA technologies FAM-ZEN/IBFQ) duplexed with 18S rRNA VIC-PL (Thermo Fisher Scientific assay ID Hs99999901_s1) and quantified using the ΔΔCt method.

NCIH1568 cells = test: Growth inhibition, MCL1 rescue by MCL1L cDNA overexpression; conditions: NCIH1568 (MCL1-dependent), Dox-induced MCL1L cDNA vs empty vector
Description: as §1, §2

[2] = system: MCL1 protein in NCIH1568 cells; test: Western Blot Analysis of MCL1L, truncated MCL1 and cleaved PARP; conditions: 6 hours
Protocol: Cell lines were lysed in RIPA buffer (Boston BioProducts) plus protease-inhibitor cocktail (Mini-complete, EDTA-free, Roche) and phosphatase inhibitor PhosSTOP (Roche). Lysates were diluted in RIPA buffer with 4×LDS Sample Buffer (Nupage, Thermo Fisher Scientific) and 10× Reducing Reagent (Nupage, Thermo Fisher Scientific) and boiled for 5 minutes. Twenty five micrograms of protein were loaded per well in 4-12% Bis-Tris SDS Page gels (Novex, Thermo Fisher Scientific). Gels were transferred to nitrocellulose membranes using iBlot system (Thermo Fisher Scientific). Membranes were blocked in blocking buffer (1× Tris-Buffered Saline+0.1% Tween-20 (Boston Bioproducts)+5% Non-Fat Dry Milk (Bio-Rad)) for 1 hour and then cut. Each section was probed separately with antibodies to each of the following proteins in blocking buffer: MCL1 (Cell Signaling Technologies 5453) (D35A5) rabbit monoclonal diluted 1:500, BCL-xL (Cell Signaling Technologies 2764) (54H6) rabbit monoclonal diluted 1:500, Cleaved Parp (Cell Signaling Technologies 5625) (D64P10) rabbit monoclonal diluted 1:500, and GAPDH (Sigma G8795) mouse monoclonal at 100 ng/mL. Blots were incubated with primary antibodies dilutions shaking at 4° C. overnight. Western blots were then blotted either with Odyssey Licor or HRP secondary antibodies. Blots were then washed four times using wash buffer (1× Tris-Buffered Saline+0.1% Tween-20). Blots imaged using Licor were probed shaking at room temperature for 1 hour with Licor IR-labeled secondary antibodies, IRDye® 800CW Goat anti-Rabbit IgG (Odyssey 925-32211) and IRDye® 680LT Goat anti-Mouse IgG (Odyssey 925-68020) diluted 1:10,000 in blocking buffer. Blots were then washed three times with wash buffer. IR-dye detection was performed using the Licor imaging system (Odyssey) according to manufacturer's instruction. Blots imaged using HRP were probed shaking at room temperature for 1 hour with Anti-mouse IgG, HRP-linked Antibody (Cell Signaling Technologies 7076) and Anti-rabbit IgG, HRP-linked Antibody (Cell Signaling Technologies 7074) diluted 1:5000 in blocking buffer. […]

CC[C@H](O)[C@@H](C)[C@H]1O[C@@H]1C[C@@](C)(O)/C=C/C=C(\C)[C@H]1OC(=O)C[C@H](O)CC[C@@](C)(O)[C@@H](OC(=O)N2CCN(C3CCCCCC3)CC2)/C=C/[C@@H]1C [E7107, (8E,12E,14E)-7-((4-Cycloheptylpiperazin-1-yl)carbonyl)oxy-3,6,16,21-tetrahydroxy-6,10,12,16,20-pentamethyl-18,19-epoxytricosa-8,12,14-trien-11-olide]
growth inhibition (A549 cells; A549 (MCL1-independent), without BCLxL knockdown): cytostatic inhibition
growth inhibition (A549 cells; A549, inducible knockdown of BCLxL (Dox)): clear cell death
MCL1L mRNA [1]: robust reduction
MCL1S mRNA [1]: transient expression
MCL1 pre-mRNA with intron-retention [1]: continuous induction
cell death with cDNA overexpression of MCL1L (NCIH1568 cells): rescued the cell death
cleaved PARP protein (indicator of apoptosis) [2]: induction
full length MCL1 protein [2]: dose-dependent downregulation
truncated short-form MCL1 protein product [2]: increased in a dose-dependent manner
